Test results reported in ChEMBL document CHEMBL1150455, “Preparation and in vitro activities of naphthyl and indolyl ether derivatives of the FK-506 related immunosuppressive macrolide ascomycin” (Bioorg Med Chem Lett, 1996).

Key:
[1] = target: Peptidyl-prolyl cis-trans isomerase FKBP1A (Homo sapiens, UniProt P62942); assay: In vitro competitive binding to FK506 binding protein 12 versus tritiated FK-506.
T-cell [2] = assay: In vitro inhibition of proliferation of PMA and ionomycin stimulated murine T cells.; type: functional, cell-based; details: Mus musculus
T-cell [3] = assay: In vitro inhibition of proliferation of PMA and ionomycin stimulated murine T cells; Antagonist; type: functional, cell-based, Mus musculus

Sequence of Peptidyl-prolyl cis-trans isomerase FKBP1A (P62942 whole entry): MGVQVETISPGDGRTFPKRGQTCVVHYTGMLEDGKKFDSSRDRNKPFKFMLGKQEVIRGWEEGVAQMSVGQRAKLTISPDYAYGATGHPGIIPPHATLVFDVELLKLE

SMILES	IC50 [1] [nM]	IC50 (T-cell [2]) [nM]	IC50 (T-cell [3])
CC[C@@H]1/C=C(\C)C[C@H](C)[C@H](OC)[C@H]2O[C@@](O)(C(=O)C(=O)N3CCCC[C@H]3C(=O)O[C@H](/C(C)=C/[C@@H]3CC[C@@H](Oc4ccc5ccccc5c4)[C@H](OC)C3)[C@H](C)[C@@H](O)CC1=O)[C@H](C)C[C@@H]2OC	74.8	1.8	–
CC[C@@H]1/C=C(\C)[C@@H](O)[C@H](C)[C@H](OC)[C@H]2O[C@@](O)(C(=O)C(=O)N3CCCC[C@H]3C(=O)O[C@H](/C(C)=C/[C@@H]3CC[C@@H](Oc4ccc5c(ccn5C)c4)[C@H](OC)C3)[C@H](C)[C@@H](O)CC1=O)[C@H](C)C[C@@H]2OC	2.8	5.5	–
CC[C@@H]1/C=C(\C)[C@@H](O)[C@H](C)[C@H](OC)[C@H]2O[C@@](O)(C(=O)C(=O)N3CCCC[C@H]3C(=O)O[C@H](/C(C)=C/[C@@H]3CC[C@@H](O)[C@H](OC)C3)[C@H](C)[C@@H](O)CC1=O)[C@H](C)C[C@@H]2OC	0.7	–	Antagonist
CC[C@@H]1/C=C(\C)C[C@H](C)[C@H](OC)[C@H]2O[C@@](O)(C(=O)C(=O)N3CCCC[C@H]3C(=O)O[C@H](/C(C)=C/[C@@H]3CC[C@@H](Oc4ccc5c(ccn5C)c4)[C@H](OC)C3)[C@H](C)[C@@H](O)CC1=O)[C@H](C)C[C@@H]2OC	3.6	0.2	–
CC[C@@H]1/C=C(\C)[C@@H](O)[C@H](C)[C@H](OC)[C@H]2O[C@@](O)(C(=O)C(=O)N3CCCC[C@H]3C(=O)O[C@H](/C(C)=C/[C@@H]3CC[C@@H](Oc4ccc5ccccc5c4)[C@H](OC)C3)[C@H](C)[C@@H](O)CC1=O)[C@H](C)C[C@@H]2OC	–	10.2	–
CC[C@@H]1/C=C(\C)C[C@H](C)[C@H](OC)[C@H]2O[C@@](O)(C(=O)C(=O)N3CCCC[C@H]3C(=O)O[C@H](/C(C)=C/[C@@H]3CC[C@@H](Oc4ccc5[nH]ccc5c4)[C@H](OC)C3)[C@H](C)[C@@H](O)CC1=O)[C@H](C)C[C@@H]2OC	5.1	0.2	–
C=CC[C@@H]1/C=C(\C)C[C@H](C)[C@H](OC)[C@H]2O[C@@](O)(C(=O)C(=O)N3CCCC[C@H]3C(=O)O[C@H](/C(C)=C/[C@@H]3CC[C@@H](O)[C@H](OC)C3)[C@H](C)[C@@H](O)CC1=O)[C@H](C)C[C@@H]2OC	0.8	0.2	–
CC[C@@H]1/C=C(\C)C[C@H](C)[C@H](OC)[C@H]2O[C@@](O)(C(=O)C(=O)N3CCCC[C@H]3C(=O)O[C@H](/C(C)=C/[C@@H]3CC[C@@H](O)[C@H](OC)C3)[C@H](C)[C@@H](O)CC1=O)[C@H](C)C[C@@H]2OC	1.6	0.7	–
CC[C@@H]1/C=C(\C)C[C@H](C)[C@H](OC)[C@H]2O[C@@](O)(C(=O)C(=O)N3CCCC[C@H]3C(=O)O[C@H](/C(C)=C/[C@@H]3CC[C@@H](Oc4ccccc4)[C@H](OC)C3)[C@H](C)[C@@H](O)CC1=O)[C@H](C)C[C@@H]2OC	10	5.4	–
